Measurements: paper PMC6152127, “Facile Synthesis of Novel Coumarin Derivatives, Antimicrobial Analysis, Enzyme Assay, Docking Study, ADMET Prediction and Toxicity Study” (Molecules : A Journal of Synthetic Chemistry and Natural …, 2017)
In brackets after ≈: the same amount, converted by molar mass.

What was measured:
[1] = system: Escherichia coli (NCIM-2256); experiment: In vitro antibacterial activity, MIC; format: cell-based; settings: Escherichia coli, NCIM2256; average of three readings
Procedure: (§1) The newly synthesized compounds 4a–o were screened for their in vitro antibacterial activity against the three different bacterial strains. Minimum inhibitory concentration (MIC) values for antibacterial activity were determined by standard agar method using Ampicillin as standard drug. Dimethyl sulfoxide (DMSO) was used as solvent control. […] Compound 4e bearing a 2,4-difluoro group on the phenyl ring was 48 µg/mL for E. coli, 50 µg/mL for B. subtilis and 52 µg/mL for S. aureus.
(§2) All the synthesized compounds were screened for their in vitro antifungal and antibacterial activity. The antibacterial activity was evaluated against three human pathogenic bacterial strains: Escherichia coli (NCIM-2256), Bacillus subtilis (NCIM-2063) and Staphylococcus aureus (NCIM-2901). The antifungal activity was evaluated against seven human pathogenic fungal strains: Candida albicans (NCIM-3471), Candida glabrata (NCYC-388), Fusarium oxysporum (NCIM-1332), Aspergillus fumigates (NCIM-902), Aspergillus flavus (NCIM-539), Aspergillus niger (NCIM-1196) and Cryptococcus neoformans (NCIM-576), which are often encountered clinically. Miconazole was used as standard drug. Minimum inhibitory concentration (MIC) values were determined as per CLSI guidelines. Dimethyl sulfoxide (DMSO) was used as solvent control.
(§3) All the synthesized compounds 4a–o were screened for their in vitro antibacterial activity. Minimum inhibitory concentration (MIC) values were determined using method recommended by National Committee for Clinical Laboratory Standards (NCCLS). In vitro antibacterial activities of the synthesized compounds 4a–o were tested in Nutrient Broth (NB) for bacteria by the two fold serial dilution method. Seeded broth (broth containing microbial spores) was prepared in NB from 24 h old bacterial cultures on nutrient agar (Hi-media) at 37± 1 °C. The bacterial suspension was adjusted with sterile saline to a concentration of 1× 10^−4–10^−5 C.F.U. The synthesized compounds and standard drug Ampicillin were prepared by two fold serial dilutions to obtain the required concentrations of 400, 200, 100, 50, 25, 12.5, 6.25 and 3.13 μg/mL. The tubes were incubated in BOD incubators at 37± 1 °C for bacteria. The MICs were recorded by visual observations after 24 h (for bacteria) of incubation.

[2] = system: Staphylococcus aureus (NCIM-2901); experiment: In vitro antibacterial activity, MIC; format: cell-based; settings: Staphylococcus aureus, NCIM2901; average of three readings
Procedure: as §1, §2, §3

[3] = system: Bacillus subtilis (NCIM-2063); experiment: In vitro antibacterial activity, MIC; format: cell-based; settings: Bacillus subtilis, NCIM2063; average of three readings
Procedure: as §1, §2, §3

[4] = system: Aspergillus flavus (NCIM-539); experiment: In vitro antifungal activity, MIC, agar method (CLSI); format: cell-based; settings: NCIM539, average of three readings
Procedure: (§4) The newly synthesized 3-((dicyclohexylamino)(substituted phenyl/heteryl)methyl)-4-hydroxy-2H-chromen-2-one derivatives 4a–o were screened for their in vitro antifungal activity against different yeast and filamentous fungal pathogens. […] Dimethyl sulfoxide (DMSO) was used as solvent control.
as §2, with “Miconazole was used as standard drug.” left out
(§5) Antifungal activity was determined as per CLSI (formerly, NCCLS) guidelines. […] The medium yeast nitrogen base was dissolved in phosphate buffer pH 7 and it was autoclaved at 110 °C for 10 min. With each set a growth control without the antifungal agent and solvent control DMSO were included. The fungal strains were freshly sub cultured on to Sabouraud dextrose agar (SDA) and incubated at 25 °C for 72 h. The fungal cells were suspended in sterile distilled water and diluted to get 10^5 cells/mL. Ten μL of the standardized suspension was inoculated onto the control plates and the media incorporated with the antifungal agents. The inoculated plates were incubated at 25 °C for 48 h. The readings were taken at the end of 48 h and 72 h. The MIC was the lowest concentration of drug preventing growth of macroscopically visible colonies on drug containing plates when there was visible growth on the drug free control plates.

[5] = system: Candida glabrata (NCYC-388); experiment: as above; format: cell-based; settings: Nakaseomyces glabratus; average of three readings
Procedure: as §4
as §2, with “Miconazole was used as standard drug.” left out
as §5

[6] = system: Aspergillus fumigates (NCIM-902); experiment: as above; format: cell-based; settings: NCIM902, average of three readings
Procedure: as §4
as §2, with “Miconazole was used as standard drug.” left out
as §5

[7] = system: Candida albicans (NCIM-3471); experiment: as above; format: cell-based; settings: NCIM3471, average of three readings
Procedure: as §4
as §2, with “Miconazole was used as standard drug.” left out
as §5

[8] = system: Fusarium oxysporum (NCIM-1332); experiment: as above; format: cell-based; settings: NCIM1332, average of three readings
Procedure: as §4
as §2, with “Miconazole was used as standard drug.” left out
as §5

[9] = system: Aspergillus niger (NCIM-1196); experiment: as above; format: cell-based; settings: NCIM1196, average of three readings
Procedure: as §4
as §2, with “Miconazole was used as standard drug.” left out
as §5

[10] = system: Cryptococcus neoformans (NCIM-576); experiment: as above; format: cell-based; settings: NCIM576, average of three readings
Procedure: as §4
as §2, with “Miconazole was used as standard drug.” left out
as §5

COc1cc(C(c2c(O)c3ccccc3oc2=O)N(C2CCCCC2)C2CCCCC2)cc(OC)c1OC (stereo not shown) [Compound 4h, 3-((Dicyclohexylamino)(3,4,5-trimethoxyphenyl)methyl)-4-hydroxy-2H-chromen-2-one]
MIC [1]: 68 µg/mL (≈ 130 µM) | MIC [2]: 66 µg/mL (≈ 127 µM) | MIC [3]: 68 µg/mL (≈ 130 µM) | melting point: 136 to 138 °C | MIC [4]: 38 µg/mL (≈ 72.8 µM) | MIC [5]: 64 µg/mL (≈ 123 µM) | MIC [6]: 50 µg/mL (≈ 95.8 µM) | MIC [7]: 48 µg/mL (≈ 92 µM) | MIC [8]: 45 µg/mL (≈ 86.3 µM) | MIC [9]: 34 µg/mL (≈ 65.2 µM) | MIC [10]: 34 µg/mL (≈ 65.2 µM)

O=c1oc2ccccc2c(O)c1C(c1ccc(O)cc1)N(C1CCCCC1)C1CCCCC1 (stereo not shown) [Compound 4i, 3-((Dicyclohexylamino)(4-hydroxyphenyl)methyl)-4-hydroxy-2H-chromen-2-one]
MIC [1]: 64 µg/mL (≈ 143 µM) | MIC [2]: 67 µg/mL (≈ 150 µM) | MIC [3]: 66 µg/mL (≈ 147 µM) | melting point: 128 to 130 °C | MIC [4]: 25 µg/mL (≈ 55.9 µM) | MIC [5]: 35 µg/mL (≈ 78.2 µM) | MIC [6]: 42 µg/mL (≈ 93.8 µM) | MIC [7]: 32 µg/mL (≈ 71.5 µM) | MIC [8]: 35 µg/mL (≈ 78.2 µM) | MIC [9]: 28 µg/mL (≈ 62.6 µM) | MIC [10]: 24 µg/mL (≈ 53.6 µM)

O=c1oc2ccccc2c(O)c1C(c1ccccc1O)N(C1CCCCC1)C1CCCCC1 (stereo not shown) [Compound 4j, 3-((Dicyclohexylamino)(2-hydroxyphenyl)methyl)-4-hydroxy-2H-chromen-2-one]
MIC [1]: 68 µg/mL (≈ 152 µM) | MIC [2]: 72 µg/mL (≈ 161 µM) | MIC [3]: 72 µg/mL (≈ 161 µM) | melting point: 130 to 132 °C | MIC [4]: 32 µg/mL (≈ 71.5 µM) | MIC [5]: 47 µg/mL (≈ 105 µM) | MIC [6]: 55 µg/mL (≈ 123 µM) | MIC [7]: 46 µg/mL (≈ 103 µM) | MIC [8]: 38 µg/mL (≈ 84.9 µM) | MIC [9]: 30 µg/mL (≈ 67 µM) | MIC [10]: 35 µg/mL (≈ 78.2 µM)

CCOc1cc(C(c2c(O)c3ccccc3oc2=O)N(C2CCCCC2)C2CCCCC2)ccc1O (stereo not shown) [Compound 4l, 3-((Dicyclohexylamino)(3-ethoxy-4-hydroxyphenyl)methyl)-4-hydroxy-2H-chromen-2-one]
MIC [1]: 56 µg/mL (≈ 114 µM) | MIC [2]: 54 µg/mL (≈ 110 µM) | MIC [3]: 54 µg/mL (≈ 110 µM) | melting point: 140 to 142 °C | MIC [4]: 15 µg/mL (≈ 30.5 µM) | MIC [5]: 28 µg/mL (≈ 57 µM) | MIC [6]: 36 µg/mL (≈ 73.2 µM) | MIC [7]: 25 µg/mL (≈ 50.9 µM) | MIC [8]: 28 µg/mL (≈ 57 µM) | MIC [9]: 12 µg/mL (≈ 24.4 µM) | MIC [10]: 12 µg/mL (≈ 24.4 µM)

O=c1oc2ccccc2c(O)c1C(c1ccccn1)N(C1CCCCC1)C1CCCCC1 (stereo not shown) [Compound 4m, 3-((Dicyclohexylamino)(pyridin-2-yl)methyl)-4-hydroxy-2H-chromen-2-one]
MIC [1]: 68 µg/mL (≈ 157 µM) | MIC [2]: 78 µg/mL (≈ 180 µM) | MIC [3]: 74 µg/mL (≈ 171 µM) | melting point: 148 to 150 °C | MIC [4]: 25 µg/mL (≈ 57.8 µM) | MIC [5]: 46 µg/mL (≈ 106 µM) | MIC [6]: 45 µg/mL (≈ 104 µM) | MIC [7]: 48 µg/mL (≈ 111 µM) | MIC [8]: 40 µg/mL (≈ 92.5 µM) | MIC [9]: 22 µg/mL (≈ 50.9 µM) | MIC [10]: 28 µg/mL (≈ 64.7 µM)

O=c1oc2ccccc2c(O)c1C(c1cccs1)N(C1CCCCC1)C1CCCCC1 (stereo not shown) [Compound 4n, 3-((Dicyclohexylamino)(thiophen-2-yl)methyl)-4-hydroxy-2H-chromen-2-one]
MIC [1]: 65 µg/mL (≈ 149 µM) | MIC [2]: 72 µg/mL (≈ 165 µM) | MIC [3]: 74 µg/mL (≈ 169 µM) | melting point: 140 to 142 °C | MIC [4]: 32 µg/mL (≈ 73.1 µM) | MIC [5]: 53 µg/mL (≈ 121 µM) | MIC [6]: 67 µg/mL (≈ 153 µM) | MIC [7]: 55 µg/mL (≈ 126 µM) | MIC [8]: 58 µg/mL (≈ 133 µM) | MIC [9]: 38 µg/mL (≈ 86.8 µM) | MIC [10]: 33 µg/mL (≈ 75.4 µM)

Clc1ccc(COC(Cn2ccnc2)c2ccc(Cl)cc2Cl)c(Cl)c1 (stereo not shown) [Miconazole, reference compound]
MIC [4]: 12 µg/mL (≈ 28.8 µM) | MIC [5]: 25 µg/mL (≈ 60.1 µM) | MIC [6]: 35 µg/mL (≈ 84.1 µM) | MIC [7]: 25 µg/mL (≈ 60.1 µM) | MIC [8]: 25 µg/mL (≈ 60.1 µM) | MIC [9]: 12 µg/mL (≈ 28.8 µM) | MIC [10]: 12 µg/mL (≈ 28.8 µM)
